Patent US20210337847A1, “Mint Flavor Compositions” (The Procter & Gamble Company, priority 2020, published 2021)

Legend:
[1] = Comparison of cooling attributes of (−)-menthol and racemic menthol in a toothpaste (CREST Cavity formulation); assay type: in vivo; conditions: for Potency compared to L-Menthol / Time Point at Maximum Cooling / Maximum Cooling (0-60 scale) / Maximum Longevity: CREST Cavity formulation; for Maximum Cooling (0-60 scale): 60 = greatest amount of cooling, 0 = least; for Maximum Longevity: longevity of cooling; for EC 50: concentration of coolant giving 50% of its maximal cooling
Excerpt: The following data helps support the use of racemic menthol to reduce costs of mint flavor compositions herein described. From internal unpublished research, Table B compares replacing (−)-menthol with a racemic menthol in a 1:1 in a toothpaste formulation. Such a direct replacement is not preferred given the reduced cooling profile and olfactory differences; however, a portion of L-menthol is preferably replaced by racemic-menthol to gain cost efficiency while minimizing impact to the overall mint flavor profiles.
Table B is a comparison of attributes between (-)-menthol and racemic menthol in a toothpaste context (using CREST Cavity formulation).
This value represents the concentration of a coolant where 50% of its maximal cooling is observed.

[2] = Expert sensory testing of racemic menthol versus (−)-menthol in a toothpaste formulation (CREST Cavity) with a standard spearmint flavor; assay type: in vivo
Method: In separate, unpublished internal experiments, perceptual experiences of racemic menthol are quantified via expert sensory testing. The use of a standard spearmint flavor (minimizing extra menthol contribution) compared racemic menthol to (−)-menthol in a toothpaste formulation (CREST Cavity). There are several sensory observations taken from these experiments. […] These aromatic notes appear during brushing and disappear after 5-10 minutes post expectoration and are more pronounced as concentrations increase.

Row | Structure (SMILES) | Potency compared to L-Menthol [1] | Time Point at Maximum Cooling [1] [min] | Maximum Cooling (0-60 scale) [1] | Maximum Longevity [1] | EC 50 [1] | Less potent than (−)-menthol for cooling [2]
1 | CC1CCC(C(C)C)C(O)C1 (racemic) [Racemic Menthol, racemic menthol] | ~0.65-0.7x | ~1 | 35 | Up to 20 minutes | 1,250 to 1,500 parts per million | 25-30%
2 | CC1CCC(C(C)C)C(O)C1 (single isomer, unassigned; (-)) [(−)-Menthol, (−)-menthol] | 1x | ~5 | 40 | Up to 25 minutes | 1,750 to 2,250 parts per million | –
